Columns and labels:
[1] = target: T1, Uba1–Cdc34^A141K–Ub(t) (covalently trapped E1–E2–ubiquitin thioester mimetic) (Saccharomyces cerevisiae, UniProt P22515); assay: X-ray crystallography, […] Å; conditions: crystals grown with 1 mM ATP, 5 mM MgCl2 and excess Ub; ATP binding pocket of Uba1 adenylation domain; AMP in seven of eight copies
T1 construct: Uba1 11-1024 and Cdc34 1-195 (A141K), N-terminal TEV-cleavable 6xHis, E. coli BL21(DE3); Uba1 C600-Cdc34 C95 disulfide; Ub Gly76 isopeptide-linked to Cdc34 K141; with Ubiquitin-conjugating enzyme E2-34 kDa; Ubiquitin

[2] = target: T2, S. cerevisiae Uba1 residues 11-1024 (S. cerevisiae, UniProt P22515 11-1024, Cys600 disulfide-linked to Cys95 of Cdc34 (in the crystallised complex)); assay: crystal structure; covalently trapped Uba1–Cdc34^A141K–Ub(t) complex (Cys600–Cys95 disulfide, A141K–Gly76 isopeptide bond), 100 μM, crystallised with free Ub (200 μM), 1 mM ATP and 5 mM MgCl2 at 18 °C; 3.43 Å; eight copies, four open and four closed; conditions: both partners purified
T2 construct: Uba1 (ubiquitin E1), S. cerevisiae, residues 11-1024; In the structure it is covalently trapped with Cdc34^A141K-Ub(t) through a disulfide between the catalytic cysteines; also called E1; ScUba1; source: E. coli BL21 (DE3) Codon Plus, purified (Ni-NTA, Superdex 200, MonoQ); not shown: His6, N-terminal, cleaved
T2 sequence (P22515 11-1024): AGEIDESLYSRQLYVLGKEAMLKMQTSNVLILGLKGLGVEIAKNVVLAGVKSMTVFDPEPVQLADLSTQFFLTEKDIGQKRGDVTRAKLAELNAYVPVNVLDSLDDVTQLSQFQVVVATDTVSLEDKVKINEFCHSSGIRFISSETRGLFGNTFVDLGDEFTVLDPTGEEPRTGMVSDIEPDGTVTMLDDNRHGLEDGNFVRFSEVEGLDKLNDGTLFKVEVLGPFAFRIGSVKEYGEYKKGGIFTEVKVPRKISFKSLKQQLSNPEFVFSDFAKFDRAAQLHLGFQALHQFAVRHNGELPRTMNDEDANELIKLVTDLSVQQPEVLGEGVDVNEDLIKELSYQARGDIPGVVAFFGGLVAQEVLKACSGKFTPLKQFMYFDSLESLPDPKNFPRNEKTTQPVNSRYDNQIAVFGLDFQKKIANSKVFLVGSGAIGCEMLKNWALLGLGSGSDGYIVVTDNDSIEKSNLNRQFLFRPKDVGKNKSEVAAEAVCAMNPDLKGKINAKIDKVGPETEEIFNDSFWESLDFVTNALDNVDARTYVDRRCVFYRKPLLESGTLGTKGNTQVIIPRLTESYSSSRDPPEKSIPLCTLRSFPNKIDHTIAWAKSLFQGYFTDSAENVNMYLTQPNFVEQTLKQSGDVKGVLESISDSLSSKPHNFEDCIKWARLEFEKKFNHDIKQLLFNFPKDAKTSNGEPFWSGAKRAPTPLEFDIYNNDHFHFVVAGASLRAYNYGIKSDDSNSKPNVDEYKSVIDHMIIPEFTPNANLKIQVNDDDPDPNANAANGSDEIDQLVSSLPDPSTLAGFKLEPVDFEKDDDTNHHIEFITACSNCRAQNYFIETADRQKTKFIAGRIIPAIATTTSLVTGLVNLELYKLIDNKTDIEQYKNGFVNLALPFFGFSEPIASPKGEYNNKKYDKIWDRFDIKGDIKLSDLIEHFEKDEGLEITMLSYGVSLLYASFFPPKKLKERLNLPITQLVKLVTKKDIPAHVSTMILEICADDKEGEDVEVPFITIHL

| binding result [2] | Molecule | X-ray crystallography, 3.43 Å [1] |
| --- | --- | --- |
| – | Nc1ncnc2c1ncn2[C@@H]1O[C@H](COP(=O)(O)O)[C@@H](O)[C@H]1O [AMP] | strong electron density into which AMP (but not the β and γ phosphates of ATP) |
| binds | S. cerevisiae Cdc34 residues 1-195 with A141K (Cdc34^A141K) (enzyme, UniProt P14682 1-195, looked up, Lys141 (A141K) isopeptide-linked to Gly76 of Ub(t); Cys95 disulfide-linked to Cys600 of Uba1, Cdc34 (ubiquitin E2), S. cerevisiae, residues 1-195 (Cdc34^ΔCT) with A141K; Stands in the structure as the Cdc34^A141K-Ub(t) thioester mimetic cross-linked to Uba1; also called E2; Cdc34^ΔCT A141K; source: E. coli BL21 (DE3) Codon Plus, purified (Ni-NTA, Superdex 75, MonoQ); not shown: His6, N-terminal, cleaved) MSSRKSTASSLLLRQYRELTDPKKAIPSFHIELEDDSNIFTWNIGVMVLNEDSIYHGGFFKAQMRFPEDFPFSPPQFRFTPAIYHPNVYRDGRLCISILHQSGDPMTDEPDAETWSPVQTVESVLISIVSLLEDPNINSPKNVDAAVDYRKNPEQYKQRVKMEVERSKQDIPKGFIMPTSESAYISQSKLDEPES | – |
